In US20240408122A1, “PHARMACEUTICAL COMPOSITION FOR PREVENTION OR TREATMENT OF METABOLIC DISEASE COMPRISING LYSOPHOSPHOLIPID” (SEOUL NATIONAL UNIVERSITY R&DB FOUNDATION, priority 2021, published 2024):
Values belong to the molecule of their own block, whether it stands above or below them.

Assays:
C3H10T1/2 adipocytes [1] = assay: Immunoblot analysis of C3H10T1/2 adipocytes (PKA signaling, mitochondrial enzymes); assay type: cell-based; settings: for levels of phosphorylated HSL, CREB and PKA substrates / mitochondrial enzymes, including MCAD, ATP5A, UQCRC2, SDHB, NDUFB8, and COXIV: 1 μM; for levels of phosphorylated HSL, CREB and PKA substrates: 24 or 48 hours, vs vehicle, FIG. 1A; for mitochondrial enzymes, including MCAD, ATP5A, UQCRC2, SDHB, NDUFB8, and COXIV: long-term treatment (48 hours), FIG. 1B
Procedure: (§1) C3H10T1/2 cells were purchased from the American Type Culture Collection (ATCC), and in vitro adipocyte experiments were performed using these cells, which were cultured in DMEM (Welgene) supplemented with 10% FBS (Gibco) and 1% P/S at 37° C. in a humidified atmosphere of 5% CO2. To prepare fully differentiated C3H10T1/2 adipocytes, confluent C3H10T1/2 cells were exposed to BMP4 (R&D system, 20 ng/ml) for 2 days, and induced in a differentiation medium containing IBMX (isobutylmethylxanthine, Cayman, 0.5 mM), dexamethasone (Cayman, 1 μM), insulin (Sigma, 10 μg/mL), indomethacin (Cayman, 0.125 mM), and triiodothyronine (T3, Cayman, 1 nM) for 3 days, then exposed to a maintenance medium containing insulin (1 μg/mL) and T3 (1 nM) for 3 days. To evaluate in vitro effects of lysoplasmalogen, the fully differentiated C3H10T1/2 cells were treated with vehicle control, LPE P-18:0 (1 μM) or LPC P-18:0 (1 μM), LPC P-16:0. (10 μM) or isoproterenol (10 μM) for an indicated time.
(§2) BAT, iWAT and gWAT of mice fed a HFD and administered vehicle control or LPE P-18:0 intraperitoneally were homogenized using the tacoPrep Bead Beater homogenization system in a PROPREP protein extraction solution (iNtRON Biotechnology) containing SIGMAFAST Protease Inhibitor Cocktail (Sigma) and PhoSTOP phosphatase inhibitor (Roche). C3H10T1/2 adipocytes treated with vehicle control, LPE P-18:0 (1 μM) or LPC P-18:0 (1 μM), LPC P-16:0 (10 µM) or isoproterenol (10 μM) were lysed in RIPA Lysis and Extraction Buffer (Thermo Fisher Scientific) containing SIGMAFAST protease inhibitor cocktail (Sigma) and PhoSTOP phosphatase inhibitor (Roche). The extracted protein concentration was quantified by BCA analysis and measured by spectrophotometry at 562 nm (MultiSkan GO, Thermo Fisher Scientific). Proteins were denatured in an SDS sample buffer at 95° C. for 5 min, separated in SDS-PAGE gel, and transferred to a PVDF membrane (Bio-Rad). The membrane was blocked with BSA in 5% non-fat dry milk or TBST (Tris-buffered saline containing 0.1% Tween 20) and incubated overnight along with the primary antibody at 4° C., then cultured with horseradish peroxidase (HRP)-conjugated secondary antibody for 1 hour at room temperature. The primary antibody used for Western blot analysis are listed in Reagents or Resources. Protein expression was detected by a Fusion Solo chemiluminescence imaging system (Vilber Lourmat) and analyzed with EvolutionCapt software (version 17.03). Immunoblots were quantified with National Institutes of Health ImageJ software (version 1.52a).

C3H10T1/2 adipocytes [2] = assay: Quantification of intracellular cAMP level (Direct cAMP ELISA); assay type: cell-based; settings: 1 μM, 24 hours; FIG. 2A
Procedure: as §1, with “To evaluate in vitro effects of lysoplasmalogen, the fully differentiated C3H10T1/2 cells were treated with vehicle control, LPE P-18:0 (1 μM) or LPC P-18:0 (1 μM), LPC P-16:0. (10 μM) or isoproterenol (10 μM) for an indicated time.” left out
To measure intracellular CAMP levels in the differentiated C3H10T1/2 adipocytes treated with LPC P-18:0 (1 μM), LPE P-18:0 (1 μM) or isoproterenol (10 μM), The Direct CAMP ELISA Kit (Enzo) was used according to the manufacturer's instructions. […] The absorbance of the plate was measured at 405 nm, and the calculated absorbance was converted into pmol/ml of CAMP using AssayFit Pro (v1.31), and normalized to protein concentration measured with the Pierce BCA Protein Assay Kit (Thermo Fisher Scientific).

C3H10T1/2 adipocytes [3] = assay: Oxygen consumption rate (Seahorse XF, Cell Mito Stress Test); assay type: cell-based; settings: 1 μM; FIGS. 2B and 2C
Procedure: as §1
Oxygen consumption rates (OCRs) were measured with a Seahorse XF Analyzer (Agilent). The differentiated C3H10T1/2 adipocytes […] treated with LPC P-18:0 (1 μM), LPE P-18:0 or vehicle were washed, and maintained in an assay medium (XF DMEM basal medium, pH 7.4 (Agilent)) supplemented with D-(+)-glucose (25 mM) and L-glutamine (4 mM). The XFp Cell Mito Stress Test Kit (Agilent) was used at concentrations of 2.5 μM oligomycin, 0.5 μM carbonyl cyanide-4-(trifluoromethoxy) phenylhydrazone (FCCP) and 0.5 µM rotenone/antimycin A. Basal and maximal OCRs were calculated by subtracting non-mitochondrial respiration. The ATP production rate was calculated by subtracting the OCR induced by oligomycin A from the basal OCR. Spare respiratory capacity was calculated by subtracting baseline OCR from the maximal OCR. The OCR was normalized to protein concentration. Data were analyzed using Agilent Wave software (version 2.6.0.31).

[4] = tested on: adipose tissues of HFD-fed mice; assay: Immunoblot analysis of BAT, iWAT and gWAT of HFD-fed mice; assay type: in vivo; settings: 200 μg/kg/day intraperitoneally for 2 weeks, FIGS. 3A, 3B
Procedure: as §2, with “Proteins were denatured in an SDS sample buffer at 95° C. for 5 min, separated in SDS-PAGE gel, and transferred to a PVDF membrane (Bio-Rad). The membrane was blocked with BSA in 5% non-fat dry milk or TBST (Tris-buffered saline containing 0.1% Tween 20) and incubated overnight along with the primary antibody at 4° C., then cultured with horseradish peroxidase (HRP)-conjugated secondary antibody for 1 hour at room temperature. The primary antibody used for Western blot analysis are listed in Reagents or Resources.” left out
For the diet-induced obesity model, 8-week-old mice were fed a HFD (60% fat, Research Diets, cat #D12492) for 8 weeks. […] Body compositions were measured by nuclear magnetic resonance (NMR) scanning EchoMRI-700 (Echo Medical Systems). […]

HFD-fed mice [5] = assay: Glucose tolerance test in HFD-fed mice; assay type: in vivo; settings: 200 μg/kg/day intraperitoneally for 2 weeks, FIG. 4
Procedure: (§3) For the diet-induced obesity model, 8-week-old mice were fed a HFD (60% fat, Research Diets, cat #D12492) for 8 weeks. Standardized rodent pellet feed (NCD, Purina, cat #38057) was used as the control feed. Energy expenditure (EE) was estimated by an indirect calorimeter (PhenoMaster, TSE Systems, Germany). Body compositions were measured by nuclear magnetic resonance (NMR) scanning EchoMRI-700 (Echo Medical Systems). To investigate effects of treatment with LPE P-18:0, the mice were fed a HFD for 8 weeks and injected intraperitoneally with LPE P-18:0 (Avanti Polar Lipids, 200 μg/kg/day, cat #852471P) or vehicle for 2 weeks.

HFD-fed mice [6] = assay: Body weight and body composition in diet-induced obesity model; assay type: in vivo; settings: 200 μg/kg/day intraperitoneally for 2 weeks, FIG. 5
Procedure: as §3

HFD-fed mice [7] = assay: Indirect calorimetry analysis in HFD-fed mice; assay type: in vivo; settings: 200 μg/kg/day intraperitoneally for 2 weeks
Procedure: as §3

HFD-fed mice [8] = assay: Intraperitoneal insulin tolerance test (ITT); assay type: in vivo; settings: 200 μg/kg/day intraperitoneally for 2 weeks, insulin 0.75 units/kg i.p., FIG. 5E
Procedure: as §3
For the insulin tolerance test, the mice were fasted for 6 hours before the test, was injected intraperitoneally with insulin (Sigma, 0.75 units/kg body weight, cat #91077C-1G), and blood glucose was measured at a designated time interval.

levels of phosphorylated HSL, CREB and PKA substrates (C3H10T1/2 adipocytes [1]): significant increase
mitochondrial enzymes, including MCAD, ATP5A, UQCRC2, SDHB, NDUFB8, and COXIV (C3H10T1/2 adipocytes [1]): significant upregulation
Compound: CCCCCCCCCCCCCCCC/C=C\OC[C@@H](O)COP(=O)([O-])OCC[N+](C)(C)C [LPC P-18:0]
intracellular cAMP levels (C3H10T1/2 adipocytes [2]): increase
ATP production rate (C3H10T1/2 adipocytes [3]): increase
maximum respiration rate (C3H10T1/2 adipocytes [3]): increase
spare respiratory capacity (C3H10T1/2 adipocytes [3]): increase

Compound: CCCCCCCCCCCCCCCC/C=C\OC[C@@H](O)COP(=O)(O)OCCN [LPE P-18:0]
levels of phosphorylated HSL, CREB and PKA substrates (C3H10T1/2 adipocytes [1]): significant increase
mitochondrial enzymes, including MCAD, ATP5A, UQCRC2, SDHB, NDUFB8, and COXIV (C3H10T1/2 adipocytes [1]): significant upregulation
intracellular cAMP levels (C3H10T1/2 adipocytes [2]): increase
ATP production rate (C3H10T1/2 adipocytes [3]): increase
maximum respiration rate (C3H10T1/2 adipocytes [3]): increase
spare respiratory capacity (C3H10T1/2 adipocytes [3]): increase
PKA signaling and mitochondrial activity in the adipose tissues [4]: upregulates
glucose tolerance (HFD-fed mice [5]): improves
body fat mass (HFD-fed mice [6]): decreased
body weight (HFD-fed mice [6]): decreased
Food intake (HFD-fed mice [7]): decreased
activity (HFD-fed mice [7]): increased
VO2 (HFD-fed mice [7]; FIGS. 5C, 5D): increased
energy expenditure (HFD-fed mice [7]; FIGS. 5C, 5D): increased
insulin tolerance (HFD-fed mice [8]): decreased

Compound: CCCCCCCCCCCCCC/C=C\OC[C@@H](O)COP(=O)([O-])OCC[N+](C)(C)C [LPC P-16:0]
levels of phosphorylated HSL and CREB (C3H10T1/2 adipocytes [1]; 10 μM, 4 hours, vs vehicle (4 mg/mL fatty acid-free BSA), FIG. 6): significant increase
